Data set [1] can be described thus: refractive index (Na D-line) (dimensionless). The settings on record: 293.15 K; 101.33 kPa; Liquid; Standard Abbe refractometry.
The conditions of data set [2]: Liquid; for mass density: 293.15 K, 101.33 kPa, Vibrating tube method; for vapor or sublimation pressure: Ebulliometric method (Recirculating still).

Numbers after ± are expanded uncertainties.

Usually refractive index stands for the speed of light in vacuum divided by its phase velocity in the sample. As a reminder, the mass density is mass per unit of volume. For orientation: vapor or sublimation pressure means the pressure of vapour in equilibrium with the condensed phase. Consider `CC(C)CO` [2-methyl-1-propanol], for which, in data set [1], the refractive index worked out at 1.3954 ± 0.0007. In data set [2], the mass density is 802.7 ± 0.8 kg/m3. For the same molecule, in data set [2] (357.6 K), the “vapor or sublimation pressure” value is listed as 40 ± 0.2 kPa.
On to `CCCCO` [butan-1-ol], for which the refractive index in data set [1] is 1.3992 ± 0.0007. Besides, in data set [2], the mass density is on record as 810.4 ± 0.8 kg/m3. In addition, the “vapor or sublimation pressure” value in data set [2] (367.1 K) is listed as 40 ± 0.2 kPa.
Take `CCCCCCCCCCCC` [dodecane]: the refractive index in data set [1] is 1.4218 ± 0.0007. Moreover, the mass density in data set [2] is reported as 750 ± 0.8 kg/m3. The “vapor or sublimation pressure” value in data set [2] (453.7 K) was 40 ± 0.2 kPa.
For the molecule `CCCO` [propan-1-ol], the refractive index in data set [1] is listed as 1.3851 ± 0.0007. In data set [2], the mass density is 804.9 ± 0.8 kg/m3. Also, the “vapor or sublimation pressure” value in data set [2] (346.5 K) was 40 ± 0.2 kPa.

Values taken from the NIST ThermoML archive (doi:10.1021/je500237g).
